Eleven compounds from ChEMBL document CHEMBL1135308, “Non-peptide alpha(v)beta(3) antagonists. Part 4: potent and orally bioavailable chain-shortened RGD mimetics” (Bioorg Med Chem Lett, 2002) can be followed below.

The nature of data set [1]: Compound was tested for plasma half life when administered in dog perorally (1 mg/kg) and intravenously (0.2 mg/kg). Format: ADME, organism-based, Canis lupus familiaris.
A short description of data set [2]: Compound was tested for its ability of plasma clearance when administered in dog perorally (1 mg/kg) and intravenously (0.2 mg/kg). Format: ADME, organism-based, Canis lupus familiaris. Particulars: iv.
Data set [3] can be described thus: Oral bioavailability in dog (1 mg/kg p.o. and 0.2 mg/kg i.v.). Format: ADME, organism-based, Canis lupus familiaris. Particulars: in vivo.
The nature of data set [4]: Partition coefficient (logP). The data set is classed as physicochemical. To be noted: octanol/water.
For the next data set, the species on record is Homo sapiens. Kind of data set: Inhibitory concentration required for 50% inhibition of the rate of ADP-stimulated platelet aggregation. The data set is classed as functional, organism-based.
The target in the next data set is Integrin alpha-V/beta-3 (Homo sapiens, UniProt P05106+P06756). Description: Inhibition of binding to human alpha V beta3. Format: protein-complex assay.
Sequence of Integrin alpha-V/beta-3 (P05106 27-788 limits assumed): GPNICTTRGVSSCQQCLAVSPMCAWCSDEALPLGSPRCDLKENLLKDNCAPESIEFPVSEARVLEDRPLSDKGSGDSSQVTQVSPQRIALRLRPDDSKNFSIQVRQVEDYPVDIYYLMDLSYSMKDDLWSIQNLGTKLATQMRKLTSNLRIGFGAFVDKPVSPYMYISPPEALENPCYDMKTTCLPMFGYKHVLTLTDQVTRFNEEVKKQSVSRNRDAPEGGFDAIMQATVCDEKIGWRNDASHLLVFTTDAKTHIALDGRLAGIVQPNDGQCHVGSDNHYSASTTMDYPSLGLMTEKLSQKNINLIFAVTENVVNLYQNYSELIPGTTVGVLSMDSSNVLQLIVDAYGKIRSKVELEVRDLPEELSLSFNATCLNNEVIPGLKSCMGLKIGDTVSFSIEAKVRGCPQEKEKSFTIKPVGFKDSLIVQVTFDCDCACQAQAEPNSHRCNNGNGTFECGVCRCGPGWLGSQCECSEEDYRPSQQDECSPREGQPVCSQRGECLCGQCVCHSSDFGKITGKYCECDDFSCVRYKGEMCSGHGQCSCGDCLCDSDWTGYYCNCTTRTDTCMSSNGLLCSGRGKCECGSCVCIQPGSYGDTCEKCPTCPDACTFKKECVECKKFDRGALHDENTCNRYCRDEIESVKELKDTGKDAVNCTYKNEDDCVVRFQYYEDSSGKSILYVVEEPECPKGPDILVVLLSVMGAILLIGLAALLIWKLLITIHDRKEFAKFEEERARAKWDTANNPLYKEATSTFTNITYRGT
Sequence of Integrin alpha-V/beta-3 (P06756 31-889 limits assumed): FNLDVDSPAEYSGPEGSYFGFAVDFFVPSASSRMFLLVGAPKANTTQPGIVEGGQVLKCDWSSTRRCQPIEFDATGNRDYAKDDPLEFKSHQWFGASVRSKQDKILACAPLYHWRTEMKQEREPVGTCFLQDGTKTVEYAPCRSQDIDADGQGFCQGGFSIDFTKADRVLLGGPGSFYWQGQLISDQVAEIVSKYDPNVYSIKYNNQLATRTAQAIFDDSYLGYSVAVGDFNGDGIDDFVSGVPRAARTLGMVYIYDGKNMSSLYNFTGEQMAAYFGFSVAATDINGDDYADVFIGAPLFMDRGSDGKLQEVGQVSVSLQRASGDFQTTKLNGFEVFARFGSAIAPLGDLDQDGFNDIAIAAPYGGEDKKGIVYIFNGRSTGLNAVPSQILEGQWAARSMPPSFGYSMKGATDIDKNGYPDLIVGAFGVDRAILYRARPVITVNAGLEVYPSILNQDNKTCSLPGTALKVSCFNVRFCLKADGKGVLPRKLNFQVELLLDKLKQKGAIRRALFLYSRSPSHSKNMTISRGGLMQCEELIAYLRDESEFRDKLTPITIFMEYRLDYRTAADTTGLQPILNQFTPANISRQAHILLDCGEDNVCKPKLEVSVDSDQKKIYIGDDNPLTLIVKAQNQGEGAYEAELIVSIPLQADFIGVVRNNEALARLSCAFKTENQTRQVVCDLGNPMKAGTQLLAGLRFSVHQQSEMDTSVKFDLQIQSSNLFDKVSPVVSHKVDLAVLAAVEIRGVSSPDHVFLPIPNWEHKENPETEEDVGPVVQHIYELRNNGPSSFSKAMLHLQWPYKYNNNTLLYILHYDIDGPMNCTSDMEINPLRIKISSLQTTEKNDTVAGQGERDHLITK
Sequence of Integrin alpha-V/beta-3 (P06756 891-1048 limits assumed): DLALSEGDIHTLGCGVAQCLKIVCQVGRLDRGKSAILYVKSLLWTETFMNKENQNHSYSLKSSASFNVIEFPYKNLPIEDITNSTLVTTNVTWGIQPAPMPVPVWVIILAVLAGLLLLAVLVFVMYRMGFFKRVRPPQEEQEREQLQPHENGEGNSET

`O=C(O)C[C@H](NC(=O)CCCCc1ccc2c(n1)NCCC2)c1ccc2nc(O)oc2c1`: the half-life (commonly how long it takes for the measured level to halve) in data set [1] is 1.2 h. This compound yielded a clearance in data set [2] of 37 mL/min/kg. In data set [3], the bioavailability (in general, dose-corrected exposure relative to a reference, in per cent) is 25%. Besides, the logP (in general, a log measure of how a compound divides between an organic and an aqueous phase) in data set [4] is -0.24. Besides, the results for the IC50 in the data set filed under Homo sapiens and on Integrin alpha-V/beta-3 were above 10000 nM and 13.1 nM, respectively.

With `O=C(O)C[C@H](NC(=O)CNC(=O)CCCc1ccc2c(n1)NCCC2)c1cnc2ccccc2c1`, the IC50 (usually the concentration that gives 50% inhibition) at Integrin alpha-V/beta-3 came out at 0.67 nM. In other words, the sub-nanomolar range.

`O=C(O)CCNC(=O)CCCCc1ccc2c(n1)NCCC2`: the concentration for half-maximal inhibition (IC50) on Integrin alpha-V/beta-3 was 500 nM.

As for `O=C(O)C[C@H](NC(=O)CCCCc1ccc2c(n1)NCCC2)c1ccc2c(c1)OCO2`, in data set [1], the half-life was 2.4 h. The compound also came in with a clearance in data set [2] of 1.2 mL/min/kg. Moreover, the bioavailability in data set [3] amounted to 94%. In addition, the logP in data set [4] came to 0.47. The IC50 was above 10000 nM in the data set filed under Homo sapiens and 1.5 nM on Integrin alpha-V/beta-3.

As for `O=C(O)C[C@H](NC(=O)CCCCc1ccc2c(n1)NCCC2)c1cncnc1`, the half-life in data set [1] was 2.4 h. The clearance in data set [2] turned out to be 26 mL/min/kg. For the same compound, the bioavailability in data set [3] came to 10%. Further, the logP in data set [4] is -1.21. Besides, the IC50 in the data set listed under Homo sapiens was above 10000 nM; at Integrin alpha-V/beta-3 it was 3.3 nM.

Compound `O=C(O)C[C@H](NC(=O)CCCCc1ccc2c(n1)NCCC2)c1cnc2ccccc2c1` gave a half-life in data set [1] of 2.4 h. Also, in data set [2], the clearance is 5.8 mL/min/kg. In addition, in data set [3], the bioavailability is 65%. This compound returned a logP in data set [4] of 0.76. The IC50 in the data set filed under Homo sapiens is 4440 nM; at Integrin alpha-V/beta-3, 1.6 nM.

Compound `O=C(O)CCNC(=O)CNC(=O)CCCc1ccc2c(n1)NCCC2` returned an IC50 at Integrin alpha-V/beta-3 of 48 nM.

For `O=C(O)C[C@H](NC(=O)CCCCc1ccc2c(n1)NCCC2)c1ccc2c(c1)OCC2`, the half-life in data set [1] is 2.5 h. The compound further gave a clearance in data set [2] of 1.2 mL/min/kg. In data set [3], this compound showed a bioavailability of 99%. The compound further returned a logP in data set [4] of 0.53. In addition, the IC50 in the data set listed under Homo sapiens was above 10000 nM; at Integrin alpha-V/beta-3, 3 nM.

In the case of `O=C(O)C[C@H](NC(=O)CCCCCCc1ccc2c(n1)NCCC2)c1cnc2ccccc2c1`, the IC50 on Integrin alpha-V/beta-3 came to 5.8 nM.

Compound `O=C(O)C[C@H](NC(=O)CCCCCc1ccc2c(n1)NCCC2)c1cnc2ccccc2c1` displayed an IC50 on Integrin alpha-V/beta-3 of 5.9 nM. This IC50 and that of the compound before are within 1.5-fold of each other.

Take `O=C(O)C[C@H](NC(=O)CCCCc1ccc2c(n1)NCCC2)c1cccc(F)c1`: the half-life in data set [1] is 5.5 h. The compound further showed a clearance in data set [2] of 2 mL/min/kg. This compound also came in with a bioavailability in data set [3] of 81%. Further, the logP in data set [4] came to 0.29. Besides, the values for the 50% inhibitory concentration (IC50) in the data set listed under Homo sapiens and at Integrin alpha-V/beta-3 were above 10000 nM and 23 nM, respectively.
